Measurements reported in patent US20220177538A1, “CO-AGONISTS AT GLP-1 AND GIP RECEPTORS SUITABLE FOR ORAL DELIVERY” (Novo Nordisk A/S, priority 2020, published 2022).
Starred links: 1 amine or outer side, 2 acyl side, 3 side chain; linkers in the order of their positions; H or OH if unused. Non-standard residues stand in square brackets, D forms with d. Residues, ends and D or L forms follow the SMILES beside them. Groups on a side chain read outwards from the residue. *: point of attachment. C18 diacid = O=C(O)CCCCCCCCCCCCCCCCC(=O)*; γGlu = O=C(O)[C@H](CCC(=O)[*:2])N[*:1]; εLys = N[C@@H](CCCCN[*:1])C(=O)[*:2]; Aib = CC(C)(N)C(=O)O

Experiment: Pharmacokinetic study in dogs after oral dosing of tablets with SNAC
Type: in vivo, Beagle dogs
Conditions: dog, in vivo, po
Procedure: The purpose of this example is to determine the half-life and plasma exposure in vivo of the compounds of the present invention after p.o. administration to beagle dogs, i.e. the terminal half-life and concentration of test substance that reaches circulation with time. This is done in a pharmacokinetic (PK) study, where these parameters of the compound in question are determined. By terminal half-life is generally meant the period of time it takes to halve a certain plasma concentration, measured after the initial distribution phase.
The amount of SNAC in the tablet composition was 100-300 mg, the amount of magnesium stearate in the tablet composition was 7.7 mg, and the target amount of each test substance in the tablet composition was 3-4 mg.
Male beagle dogs, 1-7 years of age and weighing 9-17 kg during the study period, were included in the study. The dogs were dosed in a fasting state. The dogs were group housed in pens (12 hours light: 12 hours dark), and fed individually and restrictedly once daily with Royal Canin Medium Adult dog food (Royal Canin Products, China Branch, or Brogaarden A/S, Denmark). The dogs were used for repeated PK studies with a suitable wash-out period between successive dosing. An appropriate acclimatization period was given prior to initiation of the first PK study. All handling, dosing, and blood sampling of the animals were performed by trained and skilled staff. Before the studies, the dogs were fasted overnight and from 0 to 4 hours after dosing. The dogs were restricted to water 1 hour before dosing until 4 hours after dosing, but otherwise had ad libitum access to water during the whole period.
The compositions were administered by a single oral dosing to the dogs in groups of 6-8 dogs. […] The mouth was then closed, and 10 mL of tap water was given by syringe or gavage to facilitate swallowing of the tablet.
One blood sample was drawn before dosing, and additional samples were drawn at predefined time points after dosing for up to 240 hours, such as up to 10 hours, to adequately cover the full plasma concentration-time absorption profile of the test substance. For each blood sample time point, approximately 0.8 mL of whole blood was collected in a 1.5 mL EDTA-coated tube, which was gently turned to mix the sample with EDTA. Blood samples were collected in EDTA buffer (8 mM) and then centrifuged at 4° C. 2000 g for 10 minutes. Plasma was pipetted into Micronic tubes on dry ice, and kept at −20° C. or lower until analysis. Blood samples were taken as appropriate, for example from a venflon in the cephalic vein in the front leg for the first 2 hours and then with syringe from the jugular vein for the rest of the time points. The first few drops were allowed to drain from the venflon to avoid heparin saline from the venflon in the sample.
All blood samples were collected into test tubes containing EDTA for stabilisation and kept on ice until centrifugation. Plasma was separated from whole blood by centrifugation and the plasma was stored at −20° C. or lower until analysis.
The plasma was analysed for test substance using LC-MS (Liquid Chromatography-Mass Spectrometry) as known to the person skilled in the art. […] RP-HPLC separation was achieved using a linear gradient of 1:1 acetonitrile/methanol in 1% aqueous formic acid using either: a Phenomenex Onyx Monolithic C18 column (50×2.0 mm) and a flow rate of 0.8 mL/min at 30° C.; or an Agilent Poroshell 120 SB-C18 column (50×2.1 mm, 2.7 μm) at a flow rate of 0.4 mL/min at 60° C. The mass spectrometer was operated in either positive ionization SIM mode or positive ionization PRM mode.
For each individual animal, a plasma concentration-time profile was analysed by a non-compartmental model in Pharsight Phoenix WinNonLin ver.

| Compound | AUC/Dose | Cmax/Dose |
| --- | --- | --- |
| CC[C@H](C)[C@H](NC(=O)[C@H](Cc1ccccc1)NC(=O)[C@H](CCC(=O)O)NC(=O)[C@H](CCCNC(=N)N)NC(=O)[C@H](C)NC(=O)[C@H](C)NC(=O)[C@H](CCC(N)=O)NC(=O)[C@H](CCCCNC(=O)[C@@H](N)CCCCNC(=O)[C@@H](N)CCCCNC(=O)CC[C@H](NC(=O)CCCCCCCCCCCCCCCCC(=O)O)C(=O)O)NC(=O)[C@H](CCC(=O)O)NC(=O)[C@H](CC(C)C)NC(=O)[C@H](Cc1ccc(O)cc1)NC(=O)[C@@H](NC(=O)[C@H](CO)NC(=O)[C@H](Cc1ccc(O)cc1)NC(=O)[C@H](CC(=O)O)NC(=O)[C@H](CO)NC(=O)[C@@H](NC(=O)[C@H](Cc1ccccc1)NC(=O)[C@@H](NC(=O)CNC(=O)[C@H](CCC(=O)O)NC(=O)C(C)(C)NC(=O)[C@@H](N)Cc1ccc(O)cc1)[C@@H](C)O)[C@@H](C)O)[C@@H](C)CC)C(=O)N[C@@H](CCC(=O)O)C(=O)N[C@@H](Cc1c[nH]c2ccccc12)C(=O)N[C@@H](CC(C)C)C(=O)N[C@@H](CC(C)C)C(=O)N[C@@H](C)C(=O)NCC(=O)NCC(=O)N1CCC[C@H]1C(=O)N[C@@H](CO)C(=O)N[C@@H](CO)C(=O)NCC(=O)N[C@@H](C)C(=O)N1CCC[C@H]1C(=O)N1CCC[C@H]1C(=O)N1CCC[C@H]1C(=O)N[C@@H](CO)C(=O)O [Compound 9] (H-Y[Aib]EGTFTSDYSIYLEK([εLys-εLys-γGlu-C18 diacid])QAAREFIEWLLAGGPSSGAPPPS-OH) | 12.1 kg·h/L | 0.24 kg/L |
| CC[C@H](C)[C@H](NC(=O)[C@H](Cc1ccccc1)NC(=O)[C@H](CCC(=O)O)NC(=O)[C@H](CCCNC(=N)N)NC(=O)[C@H](C)NC(=O)[C@H](C)NC(=O)[C@H](CCC(N)=O)NC(=O)[C@H](CCCCNC(=O)[C@@H](N)CCCCNC(=O)[C@@H](N)CCCCNC(=O)CC[C@H](NC(=O)CCCCCCCCCCCCCCCCC(=O)O)C(=O)O)NC(=O)[C@H](CCC(=O)O)NC(=O)[C@H](CC(C)C)NC(=O)[C@H](Cc1ccc(O)cc1)NC(=O)[C@@H](NC(=O)[C@H](CO)NC(=O)[C@H](Cc1ccc(O)cc1)NC(=O)[C@H](CC(=O)O)NC(=O)[C@H](CO)NC(=O)[C@@H](NC(=O)[C@H](Cc1ccccc1)NC(=O)[C@@H](NC(=O)CNC(=O)[C@H](CCC(=O)O)NC(=O)C(C)(C)NC(=O)[C@@H](N)Cc1ccc(O)cc1)[C@@H](C)O)[C@@H](C)O)[C@@H](C)CC)C(=O)N[C@@H](CC(N)=O)C(=O)N[C@@H](Cc1c[nH]c2ccccc12)C(=O)N[C@@H](CC(C)C)C(=O)N[C@@H](CC(C)C)C(=O)N[C@@H](C)C(=O)NCC(=O)NCC(=O)N1CCC[C@H]1C(=O)N[C@@H](CO)C(=O)N[C@@H](CO)C(=O)NCC(=O)N[C@@H](C)C(=O)N1CCC[C@H]1C(=O)N1CCC[C@H]1C(=O)N1CCC[C@H]1C(=O)N[C@@H](CO)C(=O)O [Compound 11] (H-Y[Aib]EGTFTSDYSIYLEK([εLys-εLys-γGlu-C18 diacid])QAAREFINWLLAGGPSSGAPPPS-OH) | 7.1 kg·h/L | 0.19 kg/L |
